Data set [1] is described as follows: Antiviral activity against Influenza A virus (A/California/07/2009(H1N1)). Format: functional.
Data set [2] can be described thus: Cytotoxicity against MDCK cells assessed as reduction in cell viability after 48 hrs by MTT assay. Format: toxicity, cell-based, Canis lupus familiaris. The settings on record: dog. Background: Tetrazolium dyes change colour on reduction, which living cells bring about.
The nature of data set [3]: Antiviral activity against Influenza A virus (A/California/07/09(H1N1)) pdm09 infected in chicken erythrocytes incubated for 1 hr with supernatants from 1 hr compound pre-treated MDCK cells infected with Influenza A virus (A/California/07/2009(H1N1)) pdm09 for 48 hrs assessed as reduction in viral replication by hemagglutination assay. Format: functional, cell-based.
A short description of data set [4]: Selectivity index, ratio of CC50 for MDCK cells to IC50 for Influenza A virus (A/California/07/09(H1N1)) pdm09. Format: functional.

pIC50: −log10 of the molar value. In brackets after ≈: the same amount, converted by molar mass.

Broadly, the IC50 is the midpoint of a concentration-inhibition curve. High values mean weaker potency in that assay, low ones greater potency in that assay. What is called CC50 is the concentration at which the toxic effect on the cells reaches its halfway point. Usually pIC50 stands for the negative decadic logarithm of the IC50, by convention in mol/L.

In turn, `C=C(C)[C@@H]1CC=C(C)[C@@H](O)[C@@H]1O` returned a concentration for half-maximal inhibition (IC50) in data set [1] of 20 µg/mL (≈ 119 µM).
Regarding `CC(N)C12CC3CC(CC(C3)C1)C2` (centres undefined) [RIMANTADINE], the 50% cytotoxic concentration (CC50) at 48 h in data set [2] stood at 350 µM. For the same molecule, the pIC50 in data set [3] is 4.36. Besides, the “Ratio CC50/IC50” value in data set [4] turned out to be 8.

The values above are taken from ChEMBL document CHEMBL3860052, “Anti-influenza activity of monoterpene-derived substituted hexahydro-2H-chromenes” (Bioorg Med Chem, 2016).
